Earlier results on one compound are cited in patent US20070059354A1 (priority 2005, published 2007).

For the compound `NC(=O)N1c2ccccc2CC(=O)c2ccccc21` [Oxcarbazepine], the solubility in water entry is “practically insoluble in water”.
